Counter-ions that a name gives are not always drawn. Like-named read-outs stand apart in the source and are kept apart here.

Series [1] addresses T1, rat SERT (Rattus norvegicus, UniProt P31652).
T1 construct: from tissue; host or cells: rat striatum (membranes)
Briefly: Rat SERT binding, [3H]citalopram, striatal membranes.
Experimental: (§1) Briefly, rat striatal membranes were incubated with radioligand and inhibitor for 2 h on ice in a sodium phosphate buffer at a final Na^+ concentration of 30 nM, pH 7.4, at room temperature. The assays were terminated by filtration through glass fiber filtermats (Wallac, Inc., Gaithersburg, Md.), presoaked in 0.05% (v/v) polyethyleneimine, with a MACH3-96 Tomtec harvester (Wallac, Inc.). Filters were assayed for radioactivity in a Microbeta Plus liquid scintillation counter (Wallac, Inc.).

Series [2] concerns the target T2, dopamine transporter (DAT) (Rattus norvegicus, UniProt P23977). Briefly: biochemical.
Series [3] addresses rat DAT (Rattus norvegicus, UniProt P23977). Briefly: Rat DAT binding, [3H]Win 35,428, striatal membranes. Conditions: for NET/DAT / SERT/DAT: Table 4, binding selectivity.
Experimental: as §1
Series [4] has as its target T3, DAT (Rattus norvegicus, UniProt P23977).
T3 construct: from tissue; host or cells: rat striatum
Briefly: Uptake of [3H]DA by DAT, rat striatum. The series is classed as biochemical. As to conditions: for Ki: [3H]DA uptake, rat striatum. An excerpt: Transporter assays. The affinity of test compounds in binding to rat DAT and in inhibiting monoamine uptake was monitored as described by us previously. […] Rat cerebral cortex was used for assessing uptake of [^3H]serotonin by SERT and hippocampus for uptake of [^3H]NE by NET. […] At lease five triplicate concentrations of each test compound were studied, spaced evenly around the IC50 value. The latter was estimated by nonlinear computer curve-fitting procedures and converted to Ki with the Cheng-Prusoff equation.

For series [5], the target named is T4, Norepinephrine (NET) Transporter (Rattus norvegicus, UniProt Q63380).
T4 construct: and norepinephrine Transporters in Rat Striatum; from tissue
Briefly: NET binding, [3H]nisoxetine.

The target of series [6] is T2, dopamine transporter (DAT). Conditions: for [3H]DA/DAT Binding: Table 4, uptake/binding ratio.
Setting [7] is: read-out: Ki (DAT), inhibition of DA uptake.
Where [8] appears, read: Ki (DAT), inhibition of DA uptake.

T1 sequence (P31652 whole entry): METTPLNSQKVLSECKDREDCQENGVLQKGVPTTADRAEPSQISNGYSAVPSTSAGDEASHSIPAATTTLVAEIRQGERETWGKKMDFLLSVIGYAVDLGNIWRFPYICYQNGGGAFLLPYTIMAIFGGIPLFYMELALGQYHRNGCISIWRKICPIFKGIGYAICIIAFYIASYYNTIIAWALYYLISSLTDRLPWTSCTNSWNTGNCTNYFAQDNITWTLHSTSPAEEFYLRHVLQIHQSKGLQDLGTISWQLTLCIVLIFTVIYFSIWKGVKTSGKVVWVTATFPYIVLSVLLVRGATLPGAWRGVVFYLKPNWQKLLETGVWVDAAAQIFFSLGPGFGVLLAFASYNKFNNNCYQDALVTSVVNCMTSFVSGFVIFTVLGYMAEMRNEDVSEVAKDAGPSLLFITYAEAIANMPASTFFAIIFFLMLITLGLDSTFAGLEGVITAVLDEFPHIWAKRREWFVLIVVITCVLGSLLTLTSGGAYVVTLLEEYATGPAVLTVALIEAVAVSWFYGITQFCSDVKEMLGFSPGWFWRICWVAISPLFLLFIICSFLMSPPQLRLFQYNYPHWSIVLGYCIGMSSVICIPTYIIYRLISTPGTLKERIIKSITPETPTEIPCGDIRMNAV
T4 sequence (Q63380 1-617): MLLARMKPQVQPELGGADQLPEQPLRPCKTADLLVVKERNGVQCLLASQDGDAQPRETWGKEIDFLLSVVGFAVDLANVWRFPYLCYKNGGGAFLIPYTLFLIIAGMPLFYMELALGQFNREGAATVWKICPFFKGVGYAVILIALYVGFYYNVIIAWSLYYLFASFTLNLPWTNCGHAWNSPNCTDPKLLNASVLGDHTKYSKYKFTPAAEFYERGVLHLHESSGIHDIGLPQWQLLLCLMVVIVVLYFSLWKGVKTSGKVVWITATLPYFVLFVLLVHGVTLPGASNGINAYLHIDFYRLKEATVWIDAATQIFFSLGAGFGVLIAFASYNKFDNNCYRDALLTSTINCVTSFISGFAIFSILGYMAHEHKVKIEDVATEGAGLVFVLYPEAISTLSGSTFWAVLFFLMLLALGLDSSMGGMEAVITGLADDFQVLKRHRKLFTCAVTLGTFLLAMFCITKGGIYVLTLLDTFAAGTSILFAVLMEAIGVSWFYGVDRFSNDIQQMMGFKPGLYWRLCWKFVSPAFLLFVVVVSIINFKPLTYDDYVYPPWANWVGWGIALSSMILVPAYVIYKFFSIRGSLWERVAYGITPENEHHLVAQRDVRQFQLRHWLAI
rat DAT, sequence (P23977 whole entry): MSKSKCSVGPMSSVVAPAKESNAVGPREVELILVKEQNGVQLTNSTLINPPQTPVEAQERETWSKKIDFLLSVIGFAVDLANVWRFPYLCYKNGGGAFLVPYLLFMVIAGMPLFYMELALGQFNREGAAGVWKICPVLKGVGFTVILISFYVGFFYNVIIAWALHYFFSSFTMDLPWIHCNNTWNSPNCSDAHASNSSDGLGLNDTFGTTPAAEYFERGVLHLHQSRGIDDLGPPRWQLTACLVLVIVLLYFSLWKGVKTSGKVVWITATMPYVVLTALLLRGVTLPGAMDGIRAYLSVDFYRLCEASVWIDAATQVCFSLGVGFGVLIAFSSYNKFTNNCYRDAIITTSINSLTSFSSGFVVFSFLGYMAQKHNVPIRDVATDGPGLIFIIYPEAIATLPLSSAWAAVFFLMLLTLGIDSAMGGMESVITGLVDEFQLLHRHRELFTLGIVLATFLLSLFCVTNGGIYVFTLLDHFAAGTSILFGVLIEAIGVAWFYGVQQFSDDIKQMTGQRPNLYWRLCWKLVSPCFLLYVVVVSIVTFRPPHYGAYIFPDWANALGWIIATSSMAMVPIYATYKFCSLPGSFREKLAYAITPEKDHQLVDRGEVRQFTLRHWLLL
T3 sequence (P23977 whole entry): as above
T2 sequence (P23977 whole entry): as above

`N#Cc1ccc(CN2CCC(CCOC(c3ccccc3)c3ccccc3)CC2)cc1` [Example 4, 4-[2-(Diphenylmethoxy)ethyl]-1-[(4-cyanophenyl)methyl]piperidine]: the IC50 (as a rule, the concentration that gives 50% inhibition) in series [1] (read-out: SERT, IC50) was determined as 2280 ± 470 nM; in series [2], 4.58 ± 0.8 nM; in series [3] (read-out: IC50 for the dopamine transporter), 3.7 nM. The SERT/DAT selectivity ratio in series [3] stood at 615.
In the case of `O[C@@H](CN[C@H]1CC[C@@H](C(c2ccccc2)c2ccccc2)NC1)Cc1ccccc1` [Example 4c, (R)-1-[(3S,6S)-6-benzhydrylpiperidin-3-ylamino)-3-phenylpropan-2-ol], the Ki (commonly the equilibrium dissociation constant of an inhibitor or competing ligand from its target) in series [4] (setting [7]) stood at 25 nM.
Turning to `Fc1ccc(CN2CCC(CCOC(c3ccccc3)c3ccccc3)CC2)cc1F` [Example 2, 4-[2-(Diphenylmethoxy)ethyl]-1-[(3,4-difluorophenyl)methyl]piperidine], the IC50 in series [1] (Table 1, read-out: SERT, IC50) amounted to 1220 ± 139 nM; in series [2], 12 ± 1.62 nM; in series [3] (read-out: DAT, IC50, Table 1), 10.1 ± 0.9 nM. The SERT/DAT selectivity ratio in series [3] amounted to 122.
Turning to `OC(CN1CCN2CC1CCC2C(c1ccccc1)c1ccccc1)c1ccc(F)cc1` [Example 7c, (R)-2-((5S,8S)-8-benzhydryl-1,4-diazabicyclo[3.3.1]nonane-2-yl)-1-4-fluorophenyl)ethanol], the Ki in series [4] (setting [8]) was determined as 66.5 nM.
In the case of `Fc1ccc(CN2CCC(CCNC(c3ccccc3)c3ccccc3)CC2)cc1F` [Example 8, 4-[2-((Diphenylmethyl)amino)ethyl]-1-[(3,4-difluorophenyl)methyl]piperidine], the IC50 in series [1] (Table 1, read-out: SERT, IC50) was 1590 ± 160 nM; in series [5] (Table 1, read-out: NET, IC50) it was 1030 nM; in series [2] it was 10.7 ± 1.8 nM.
Regarding `CCC(=O)OC1CN(Cc2ccc(F)cc2)CCC1CCOC(c1ccccc1)c1ccccc1` (racemic) [Example 17], the IC50 in series [1] (Table 5, rat striatum, read-out: SERT, IC50, nM [3H]citalopram) amounted to 178 nM; in series [5], 35800 nM; in series [3], 583 ± 81 nM.
For `Oc1cccc(CN2CCC(CCOC(c3ccccc3)c3ccccc3)CC2)c1` [Example 3-OH, 4-[2-(diphenylmethoxy)ethyl]-1-[(3-hydroxyphenyl)methyl]piperidine], the IC50 in series [1] (Table 1, read-out: SERT, IC50) is 984 ± 94 nM; in series [5] (Table 1, read-out: NET, IC50), 678 ± 13 nM; in series [3] (read-out: DAT, IC50, Table 1), 14.3 ± 3.7 nM.
In turn, `OC(CCN1CCN2CC1CCC2C(c1ccccc1)c1ccccc1)c1ccc(F)cc1` (single isomer, unassigned) [Example 11b] displayed a Ki in series [4] (setting [8]) of 8.63 nM. Further, in series [4] (uptake inhibition selectivity, norepinephrine vs dopamine), the NET/DAT turned out to be 48.4. In series [4] (uptake inhibition selectivity, serotonin vs dopamine), this compound showed an SERT/DAT of 172.
`Fc1ccc(CN2CCC(CNCC(c3ccccc3)c3ccccc3)CC2)cc1` [Example 11, 4-[[2-(Diphenyl)ethyl]aminomethyl]-1-[(4-fluorophenyl)methyl]piperidine]: the half-maximal inhibitory concentration (IC50) in series [1] (Table 1, read-out: SERT, IC50) is 137 ± 45.6 nM; in series [5] (Table 1, read-out: NET, IC50), 1110 nM; in series [6] (read-out: [3H]DA Inhibition, IC50, Table 2, rat synaptosome tissue), 49.6 ± 7.2 nM; in series [3] (read-out: DAT, IC50, Table 1) it was 19.7 ± 1.4 nM. In addition, the “affinity for the SERT” value in series [1] (in words) was “moderate affinity”. Besides, the “[3H]DA/DAT Binding” value in series [6] is listed as 2.5. Moreover, the NET/DAT in series [3] came out at 5.6. Besides, the SERT/DAT in series [3] was 6.9. Also, the “affinity for the DAT” value in series [3] (in words) was “strong affinity”.
With `Ic1ccc(CN2CCC(CCOC(c3ccccc3)c3ccccc3)CC2)cc1` [Example 19, 4-[2-(diphenylmethoxy)ethyl]-1-[(4-iodophenyl)methyl]piperidine], the IC50 was determined as 2920 ± 432 nM in series [1] (Table 1, read-out: SERT, IC50); 1150 ± 116 nM in series [5] (Table 1, read-out: NET, IC50); 0.96 ± 0.16 nM in series [3] (read-out: DAT, IC50, Table 1).
As for “1-((5S,8S)-8-benzhydryl-1,4-diazabicyclo[3.3.1]nonane-2-yl)-3-phenylpropan-2-ol [Example 6b]”, the Ki in series [4] (setting [7]) is 16.8 nM.
Still for that read-out and setting: under `O[C@H](CN[C@H]1CC[C@@H](C(c2ccccc2)c2ccccc2)NC1)Cc1ccccc1` [Example 4d, (S)-1-[(3S,6S)-6-benzhydrylpiperidin-3-ylamino)-3-phenylpropan-2-ol] stands 25.3 nM.
In turn, `Fc1ccc(CNC2CCC(C(c3ccccc3)c3ccccc3)NC2)cc1` (racemic) [(±)-7a, 2-diphenylmethyl-5-(4-fluorobenzylamino)piperidine] yielded an IC50 in series [1] of 2810 nM. Besides, the IC50 in series [5] (Table 3, read-out: NET, IC50, nM [3H]nisoxetine) stood at 1350 nM. Besides, in series [6], the “[3H]DA/DAT Binding” value amounted to 0.03. The compound further gave an IC50 in series [2] of 28.9 ± 2.5 nM. Also, in series [3], the IC50 came to 30 ± 0.5 nM, the SERT/DAT selectivity ratio stood at 93.7, the NET/DAT was determined as 44.9 and the SERT/DAT came to 93.7.
Consider `OC(CCN1CCN2CC1CCC2C(c1ccccc1)c1ccccc1)c1ccc(F)cc1` (single isomer, unassigned) [Example 11a], for which the Ki in series [4] (setting [8]) stood at 41.8 nM.
Consider `CN(CC1CCN(Cc2ccc(F)cc2)CC1)CC(c1ccccc1)c1ccccc1` (as salt: oxalate) [Example 13], for which the melting point (as a rule, the temperature of the solid-liquid transition) lay in the range of 144 to 145 °C.
On the same count and under the same terms, in the case of `Ic1ccc(CN2CCC(CCOC(c3ccccc3)c3ccccc3)CC2)cc1` (as salt: oxalate) [Example 19, 4-[2-(diphenylmethoxy)ethyl]-1-[(4-iodophenyl)methyl]piperidine] it was 160 to 161 °C.
Compound `CC(NCCC1CCN(Cc2ccc(F)cc2)CC1)c1ccccc1` (centres unmarked) (as salt: oxalate) [Example 14, 4[2-[(1-(phenyl)ethyl)amino]ethyl]-1-[(4-fluorophenyl)methyl]piperidine] registered a melting point of 172 to 173 °C.
For the compound `CS(=O)(=O)Nc1ccc(CN2CCC(CCOC(c3ccccc3)c3ccccc3)CC2)cc1` [Example 6, 4-[2-(Diphenylmethoxy)ethyl]-1-[((4-methylsulfonylamino)phenyl)methyl]piperidine], the IC50 in series [1] (Table 1, read-out: SERT, IC50) turned out to be 586 ± 29.2 nM; in series [2] it was 9.7 ± 1.2 nM; in series [3] (read-out: DAT, IC50, Table 1), 26.6 ± 1.4 nM.
Consider “1-((5S,8S)-8-benzhydryl-1,4-diazabicyclo[3.3.1]nonane-2-yl)-3-phenylpropan-2-ol [Example 6a]”, for which the Ki in series [4] (setting [7]) turned out to be 82.9 nM.
On to `N#Cc1ccc(CN2CCC(CCOC(c3ccccc3)c3ccccc3)CC2)cc1` (as salt: oxalate) [Example 4, 4-[2-(Diphenylmethoxy)ethyl]-1-[(4-cyanophenyl)methyl]piperidine], for which the melting point fell in the range of 120 to 121 °C.
On to `c1ccc(CN2CCC(CCNC(c3ccccc3)c3ccccc3)CC2)cc1` [Example 9], for which the IC50 in series [1] (Table 1, read-out: SERT, IC50) amounted to 1560 ± 208 nM; in series [5] (Table 1, read-out: NET, IC50), 2620 nM; in series [2], 20.6 ± 2.5 nM.
Turning to `Fc1ccc(CN2CCC(CNOC(c3ccccc3)c3ccccc3)CC2)cc1` (as salt: oxalate) [Example 7, 4-[((2-Diphenylmethoxy)amino)methyl]-1-[(4-fluorophenyl)methyl]piperidine], the melting point was in the range of 154 to 155 °C.
Still for that read-out and setting: in the case of `Fc1ccc(CN2CCC(CNCC(c3ccccc3)c3ccccc3)CC2)cc1` (as salt: HCl) [Example 11, 4-[[2-(Diphenyl)ethyl]aminomethyl]-1-[(4-fluorophenyl)methyl]piperidine] it was 126 to 127 °C.
For `Fc1ccc(CN2CCC(CNOC(c3ccccc3)c3ccccc3)CC2)cc1` [Example 7, 4-[((2-Diphenylmethoxy)amino)methyl]-1-[(4-fluorophenyl)methyl]piperidine], the IC50 turned out to be 626 ± 33 nM in series [1] (Table 1, read-out: SERT, IC50); 691 ± 68 nM in series [5]; 16.6 ± 2.8 nM in series [2]; 34.4 ± 4.2 nM in series [3] (read-out: DAT, IC50, Table 1).
`OC1CN(Cc2ccc(F)cc2)CCC1CCOC(c1ccccc1)c1ccccc1` (racemic) [Example 16, racemic trans-3-hydroxy-4-[2-diphenylmethoxy)ethyl]-1-[(4-fluorophenyl)methyl]piperidine]: the IC50 in series [1] amounted to 1110 nM; in series [5] (Table 5, rat striatum, read-out: NET, IC50, nM [3H]nisoxetine), 637 ± 114 nM; in series [3], 5.96 ± 1.26 nM.

These data come from US8211916B2, “N- and O-substituted 4-[2-(diphenylmethoxy)-ethyl]-1-[(phenyl)methyl]piperidine analogs and methods of treating CNS disorders therewith” (Wayne State University, priority 2000, dated 2012).
